“Also recorded” adds a separate entry of the source.
Columns and labels:
[1] = tested on: Mouse bone marrow Lin-Sca-1+Kit+CD34-Flk2-cells; test: Proliferation of mouse HSCs; type: cell-based; details: serum-free Stemspan, 10 ng/ml SCF, 20 ng/ml TPO, cell numbers after 6 days
Procedure: (§1) Mouse BM Lin-Sca-1+Kit+CD34-Flk2-cells were cultured in serum-free Stemspan medium with 10 ng/ml SCF, 20 ng/ml TPO, and indicated concentrations of SA. Cell numbers were counted after 6 days. FIG. 2B The effects of SA on the ex vivo expansion of mouse CD45.1 Percent repopulation of C57BL/6 bone marrow HSCs at 0, 10 nM, 100 nM, and 1 μM for 8 days, measured at 3 weeks, 7 weeks, and 16 weeks post-transplantation. The repopulation of donor mouse CD45.1 HSCs was determined by transplantation into lethally irradiated (1000 rad) CD45.2 C57BL/6 mice. Ten thousand CD45.2 total bone marrow cells were co-transplanted as competitors. n=5. […] The repopulation of human hematopoietic stem cells was determined by transplantation into sublethally irradiated (250 rad) NOD/SCID IL2R gamma^−/− (NSG) mice. n=7.
Mouse bone marrow Lin-Sca-1+Kit+CD34-Flk2-cells were cultured in serum-free Stemspan medium with 10 ng/ml SCF, 20 ng/ml TPO, and indicated concentrations of SA. Cell numbers were counted after 6 days.

[2] = tested on: Bone marrow CD45.1 Lin-Sca-1+Kit+Flk2-CD34- cells; test: Ex vivo expansion of mouse bone marrow HSCs, repopulation after transplantation; type: cell-based; details: cultured 8 days, determined by bone marrow transplantation
Procedure: as §1
Bone marrow CD45.1 Lin^−Sca-1^+Kit^+Flk2^−CD34^− cells were isolated from 8-12 week old CD45.1 C57BL/6 mice and were plated into wells of a U-bottom 96-well plate (3799; Corning). StemSpan serum-free medium (StemCell Technologies) supplemented with 10 μg/mL heparin (Sigma), 10 ng/mL mouse SCF (R&D Systems), 20 ng/mL mouse TPO (R&D Systems), and 10 ng/mL human FGF-1 (Invitrogen), and indicated concentration of suberoylarginine was used. Cells were cultured at 37° C. in 5% CO2 and the normal level of O2 for 8 days. […]

[3] = tested on: human cord blood CD133+ cells; test: Ex vivo expansion of human cord blood HSCs, repopulation in NSG mice; type: cell-based; details: cord blood CD133+ cells cultured 11 days, 1 μM, 8 weeks post-transplantation
Procedure: as §1
Cryopreserved human cord blood CD133^+ cells were purchased from AllCells. All of cells were from pooled donors. Purities of CD133^+ cells as analyzed by flow cytometry were higher than 90%. After thawing, the cell viability tested by trypan blue exclusion was higher than 72%. […] Eight weeks after transplantation, bone marrow nucleated cells from transplanted animals were analyzed by flow cytometry for the presence of human cells. Total human hematopoietic cells were determined as CD45/71^+, and human myeloid cells as myeloid CD45/71^+CD15/66b^+.

Balb/c mice [4] = test: Mouse model of bone marrow failure after chemo- and radio-treatment; type: in vivo
Procedure: (§2) Balb/c mice were first treated with 100 mg/kg acetylphenylhydrazine and, after 24 hours, were irradiated with 2 Gy. Two days post radiation treatment, the mice were treated with 62.5 mg/kg cyclophosphamide (CY). This treatment is known to induce sublethal damage to HSCs and RBCs. Two days after the CY treatment, the mice were given daily intraperitoneal injections of SA for 4 to 14 days; a range of SA concentrations was evaluated. Blood counts were measured at days 0, 4, and 8. Additionally, bone marrow Lin^−Sca-1^+Kit^+CD34^−Flk2^− (LSKFC) cells that are enriched for HSCs and hematopoietic lineages were quantified at day 14.
as §2, with “The inventors tested the effect of SA on HSCs and RBCs in a mouse bone marrow failure model after chemo- and radio-therapy. In this model, Balb/c mice” for “Balb/c mice”, “for HSCs (Christensen and Weissman, 2001) and hematopoietic” for “for HSCs and hematopoietic”

Balb/c mice [5] = test: Toxicity in mice, daily injections for 28 days; type: in vivo, mouse; details: for toxicity: 0.5 and 1.5 mg daily for four weeks (33- and 100-times the effective amount)
Procedure: In this experiment, 8-week-old Balb/c mice were given daily injections of SA at doses of 0, 0.5, and 1.5 mg per mouse for 28 days. The body weight and activities of mice were monitored daily.

[6] = Stability test in S9 extract; type: in vitro ADME, mouse; details: 2 μM, murine S9, Phase I NADPH cofactors, 0-240 minutes
Procedure: (§3) SA (2 μM) was incubated with murine S9 (Lot KWB) and Phase I NADPH Regenerating System cofactors for 0-240 minutes. SA was quantified using a Qtrap 3200 mass spectrometer. n=3. (FIG. 7B) SA is stable in mouse plasma. 1 μl SA 2 mM DMSO stock was incubated with 1 ml ACD mouse plasma or saline making 2 μM SW125991 working solution. Vortext well and incubate in 37° C. water bath. At time point 0, 10, 30, 60, 120, 240, 1440 min, SA was quantified using a Qtrap 3200 mass spectrometer. n=3.
SA (2 mM in H2O stock, final concentration in mixture is 2 μM) was incubated with Murine S9 (Lot KWB) fraction and Phase I (NADPH Regenerating System) cofactors for 0-240 minutes. Reactions were quenched with 1 mL (1:1) of methanol containing 0.2% formic acid, and 100 ng/ml IS (IS final conc.=10 ng/ml). Samples were vortexed for 15 seconds, incubated at RT for 10 minutes and spun for 5 minutes at 2400 rpm. Supernatant (1 mL) was then transferred to an eppendorf tube and spun in a table top, chilled centrifuge for 5 minutes at 13.2K rpm. Supernatant (800 μl) was transferred to an HPLC vial (w/out insert). Analyzed by Qtrap 3200 mass spectrometer.

Stability test in plasma = type: in vitro ADME; details: 2 μM, mouse plasma, 37° C., 0-1440 min
Procedure: as §3
1 μl of SA (2 mM DMSO stock) was incubated with 1 ml ACD mouse plasma or saline control to make 2 μM SW125991 working solution. Vortext well and incubate in 37° C. water bath. At time point 0, 10, 30, 60, 120, 240, 1440 min, 100 μl sample was crashed by 200 μl MeOH with IS benzylbenzamide at 15 ng/ml. Centrifuge twice at 13200 rpm for 5 min, and supernatant was injected into LCMS for analysis.

[7] = 0.5 and 1.5 mg per mouse daily for 28 days

N=C(N)NCCC[C@H](NC(=O)CCCCCCC(=O)O)C(=O)O [SA, suberoyl arginine]
proliferation of mouse HSCs [1]: promoted the proliferation; also recorded: promotes proliferation
ex vivo expansion of mouse HSCs [2]: supports the ex vivo expansion
ex vivo expansion of human HSCs [3]: supports the ex vivo expansion
increase of phenotypic bone marrow HSCs (Balb/c mice [4]; 15 μg of SA per mouse (~0.7 mg/kg) per day for 14 days): ~40%
increase of hematocrit relative to animals not treated (Balb/c mice [4]; day 8): 25-30%
increase of hemoglobin relative to animals not treated (Balb/c mice [4]; day 8): 25-30%
increase of level of RBCs relative to animals not treated (Balb/c mice [4]; day 8): 25-30%
stimulation of hematopoietic recovery by route (Balb/c mice [4]; iv or intraperitoneal (ip) administration): works efficiently
effect on RBC recovery compared with EPO (Balb/c mice [4]; same mouse model, SA 15 μg, EPO 120 U/kg): comparable to that of EPO
toxicity (Balb/c mice [5]): did not observe any detectable SA toxicity
toxicity (Balb/c mice [5]; listed as subreoylarginine): no detectable toxicity
body weight (Balb/c mice [5]; [7]): did not significantly alter
changes in behavior, activity, hematology, serum chemistry, or urinalysis parameters (Balb/c mice [5]; [7]): did not observe any changes
histological damage to tissues/organs (Balb/c mice [5]; [7]): no damage was observed
body weight (Balb/c mice [5]; 0.5 and 1.5 mg per mouse daily for 28 days, listed as suberoylarginine): No significant change
metabolic stability in S9 liver fractions [6]: metabolically stable
stability in plasma (Stability test in plasma): metabolically stable
